Test results: patent US9522909B2, “Thiazolidinedione derivatives, preparation thereof and use thereof in cancer treatment” (UNIVERSITE DE LORRAINE, priority 2012, dated 2016)
Counter-ions that a name gives are not always drawn.

What was measured:
[1] = test system: cryopreserved human hepatocytes (primary culture); assay: Hepatocyte viability (MTT test) on suspended cryopreserved human hepatocytes; format: cell-based; conditions: 90 minutes incubation, relative to non treated cells, Table I campaign
Procedure: The hepatocyte viability corresponds to the percentage of surviving suspended human hepatocytes after 90 minutes of incubation with the compounds of the invention present at a concentration of […].
Hepatocyte viability was measured for different compounds according to the invention with cryopreserved human hepatocytes (primary culture) suspended and distributed in 96-well plates with a density of 0.1×10^6 cells per well, in a […] culture medium per well (DMEM+gentamycin (50 mg/L)+insulin (4 mg/L)+dexamethasone (1 μM)) in a CO2/air (5%/95%) humidified atmosphere at 37° C. After 30 minutes for attaining equilibrium, […] of culture medium containing the tested compounds (dissolved in DMSO) or of medium only containing DMSO (final concentration of 0.1%) were added with stirring at 900 rpm.
Cytotoxicity is evaluated with an MTT (Thiazolyl Blue Tetrazolium Bromide) test. The tested compounds or the DMSO are left to incubate for 90 minutes, and then 10 μL of MTT at 10 mg/10 mL are added per well for 30 mins. Next, the plates are centrifuged for 10 minutes at 2,000 g, the MTT is removed and some DMSO is added in an amount of 100 μL per well. The plates are gently shaked and then absorbance is measured at 595 nm by means of a spectrophotometric reader of micro-plates. The hepatocyte viability measured here corresponds to the percentage of surviving hepatocytes after 90 minutes of incubation with the compounds tested at a concentration of 100 μM, relatively to non treated cells.
The same tests were conducted for a concentration of compounds at 200 μM.
The tests were conducted in two distinct campaigns. In both cases, troglitazone (K) was used as a reference molecule.

[2] = Toxicity test on mice (maximum tolerated dose, intravenous injection); conditions: mouse, in vivo; female NMRI mice, intravenous injection into the tail vein, observed two weeks
Procedure: (§1) A toxicity test was conducted on mice for the molecules D and E. These molecules therefore only differ by the substituted methyl group on thiazolidinedione. As a comparison, the test was also conducted by using Δ2TGZ. These analyses were conducted on female NMRI mice weighing 20-25 g. Groups of three mice were set up: a non-injected control batch, a batch receiving the solvent of the molecules to be tested (water PPI, polyethylene glycol 400, absolute ethanol mixture in proportions 5/3/2), three other batches receiving the molecules to be tested. The compounds were injected into the tail vein of mice anaesthetized beforehand. The animals were weighed before and then 24 hours and 48 hours after intravenous injection of the products at the different tested doses and then they were also weighed three times a week for two weeks. The behavior of the whole of the mice was observed before, and then one hour, two hours and three hours after the intravenous injection and then daily for two weeks. The compounds were first tested at the limit of their solubility.

MCF7 = assay: Antiproliferative activity (MTS) on MCF7; format: cell-based, human; conditions: Homo sapiens, MCF7, 72 hours; for inhibition at 10 µM: 10^-5 M, triplicate, read-out: percentage of inhibition of cell growth, MCF7; for IC50: averages of two independent values
Procedure: (§2) Antiproliferative activity was measured for different compounds according to the invention by analysis of cytoxicity at 10^−5M on diverse cancer cell lines in DMSO in triplicate. For certain molecules and certain lines, the same procedure was used for determining the IC50 values (the required concentration in μM for inhibiting by half the proliferation of the cells), by conducting cytotoxicity tests at concentrations from 0.005 μM to 100 μM in duplicate. The procedure is the following. The cells of the relevant line are sown in the suitable medium (see Table III) added with L-glutamine, with 10% (v/v) of fetal calf serum, 100 IU of penicillin, 100 μg/mL of streptomycin and 1.5 μg/mL of fungizone and maintained under 5% of CO2 at 37° C. 96-well plates are sown with the required number of cells per well (see Table III) in 200 μL of medium. 24 hours later, the chemical compounds to be investigated, dissolved in DMSO, are added and the media are maintained for 72 hours under these conditions with a set final concentration in DMSO (1%). The controls received an equal volume of DMSO. The number of viable cells is measured at 490 nm with the MTS reagent (Promega, Madison Wis.). The IC50s are calculated as the concentrations of compounds inducing 50% inhibition of cell proliferation.
(§3) Tables IV and V below indicate the percentage of inhibition of cell growth, i.e. the percentage of dead cells after treatment with a compound dose of 10^−5 M. The tests were conducted in triplicate.

HCT116 = assay: Antiproliferative activity (MTS) on HCT116; format: cell-based; conditions: Homo sapiens, HCT-116; 10^-5 M, 72 hours, triplicate; read-out: percentage of inhibition of cell growth, HCT116
Procedure: as §2, §3

MDA231 = assay: Antiproliferative activity (MTS) on MDA231; format: cell-based, human; conditions: Homo sapiens, MDA-MB-231, 72 hours; for inhibition at 10 µM: 10^-5 M, triplicate, read-out: percentage of inhibition of cell growth, MDA231; for IC50: averages of two independent values
Procedure: as §2, §3

MDA435 = assay: Antiproliferative activity (MTS) on MDA435; format: cell-based; conditions: Homo sapiens, 10^-5 M, 72 hours, triplicate, read-out: percentage of inhibition of cell growth, MDA435
Procedure: as §2, §3

Mia-PaCa = assay: Antiproliferative activity (MTS) on Mia-PaCa; format: cell-based; conditions: Homo sapiens, MIA PaCa-2, 72 hours; for inhibition at 10 µM: 10^-5 M, triplicate, read-out: percentage of inhibition of cell growth, Mia-PaCa; for IC50: averages of two independent values
Procedure: as §2, §3

HepG2 = assay: Antiproliferative activity (MTS) on HepG2; format: cell-based; conditions: Homo sapiens, 72 hours; for inhibition at 10 µM: 10^-5 M, triplicate, read-out: percentage of inhibition of cell growth, HepG2; for IC50: averages of two independent values
Procedure: as §2, §3

PC3 = assay: Antiproliferative activity (MTS) on PC3; format: cell-based; conditions: Homo sapiens, PC-3; 10^-5 M, 72 hours, triplicate; read-out: percentage of inhibition of cell growth, PC3
Procedure: as §2, §3

LNCaP = assay: Antiproliferative activity (MTS) on LNCaP; format: cell-based; conditions: Homo sapiens, 72 hours; for inhibition at 10 µM: 10^-5 M, triplicate, read-out: percentage of inhibition of cell growth, LNCaP; for IC50: averages of two independent values
Procedure: as §2, §3

female NMRI mice = assay: Toxicity test on mice (maximum tolerated dose, intravenous injection); conditions: mouse, in vivo, iv
Procedure: as §1

SMILES: Cc1c(C)c2c(c(C)c1CCCCCCN)CCC(C)(COc1ccc(/C=C3\SC(=O)N(C)C3=O)cc1)O2 (racemic) [D, (±) 5-{4-[6-(6-amino-hexyl)-2,5,7,8-tetramethyl-chroman-2-ylmethoxy]-benzylidene}-3-methyl-thiazolidine-2,4-dione trifluoroacetate]
- Hepatocyte viability % (100 μM) [1]: 83%
- Hepatocyte viability % (200 μM) [1]: 83%
- MTD at 2 weeks [2]: 65.5 mg/kg
- inhibition at 10 µM (MCF7): 101%
- IC50 (MCF7): 6.9 µM
- inhibition at 10 µM (HCT116): 101%
- inhibition at 10 µM (MDA231): 101%
- IC50 (MDA231): 4.6 µM
- inhibition at 10 µM (MDA435): 101%
- inhibition at 10 µM (Mia-PaCa): 103%
- IC50 (Mia-PaCa): 3.2 µM
- inhibition at 10 µM (HepG2): 100%
- IC50 (HepG2): 7.9 µM
- inhibition at 10 µM (PC3): 92%
- inhibition at 10 µM (LNCaP): 88%
- IC50 (LNCaP): 6.5 µM

SMILES: Cc1c(C)c2c(c(C)c1O)CCC(C)(COc1ccc(C=C3SC(=O)NC3=O)cc1)O2 (stereo not drawn) [Δ2TGZ, reference compound]
- maximum tolerated dose (female NMRI mice): less than 34 mg/kg

SMILES: Cc1c(C)c2c(c(C)c1CCCCCCN)CCC(C)(COc1ccc(/C=C3\SC(=O)NC3=O)cc1)O2 (racemic) [E, (±) 5-{4-[6-(6-amino-hexyl)-2,5,7,8-tetramethyl-chroman-2-ylmethoxy]-benzylidene}thiazolidine-2,4-dione trifluoroacetate]
- Hepatocyte viability % (100 μM) [1]: 83%
- Hepatocyte viability % (200 μM) [1]: 80%
- MTD at 2 weeks [2]: 34 mg/kg
- inhibition at 10 µM (MCF7): 97%
- IC50 (MCF7): 6.4 µM
- inhibition at 10 µM (HCT116): 93%
- inhibition at 10 µM (MDA231): 92%
- IC50 (MDA231): 4.7 µM
- inhibition at 10 µM (MDA435): 65%
- inhibition at 10 µM (Mia-PaCa): 94%
- IC50 (Mia-PaCa): 3.9 µM
- inhibition at 10 µM (HepG2): 87%
- IC50 (HepG2): 3.1 µM
- inhibition at 10 µM (PC3): 40%
- inhibition at 10 µM (LNCaP): 53%
- IC50 (LNCaP): 5.1 µM
